Results reported in ChEMBL document CHEMBL1743201, “Casarett and Doull's Toxicology The Basic Science of Poisons, 7th edition” (2008).
Each block holds one compound with its values, some of them ahead of it.

Experiments:
[1] = target: T1, Aryl hydrocarbon receptor (Homo sapiens, UniProt P35869); experiment: Aryl hydrocarbon receptor antagonist (species not specified)
T1 sequence (P35869 whole entry): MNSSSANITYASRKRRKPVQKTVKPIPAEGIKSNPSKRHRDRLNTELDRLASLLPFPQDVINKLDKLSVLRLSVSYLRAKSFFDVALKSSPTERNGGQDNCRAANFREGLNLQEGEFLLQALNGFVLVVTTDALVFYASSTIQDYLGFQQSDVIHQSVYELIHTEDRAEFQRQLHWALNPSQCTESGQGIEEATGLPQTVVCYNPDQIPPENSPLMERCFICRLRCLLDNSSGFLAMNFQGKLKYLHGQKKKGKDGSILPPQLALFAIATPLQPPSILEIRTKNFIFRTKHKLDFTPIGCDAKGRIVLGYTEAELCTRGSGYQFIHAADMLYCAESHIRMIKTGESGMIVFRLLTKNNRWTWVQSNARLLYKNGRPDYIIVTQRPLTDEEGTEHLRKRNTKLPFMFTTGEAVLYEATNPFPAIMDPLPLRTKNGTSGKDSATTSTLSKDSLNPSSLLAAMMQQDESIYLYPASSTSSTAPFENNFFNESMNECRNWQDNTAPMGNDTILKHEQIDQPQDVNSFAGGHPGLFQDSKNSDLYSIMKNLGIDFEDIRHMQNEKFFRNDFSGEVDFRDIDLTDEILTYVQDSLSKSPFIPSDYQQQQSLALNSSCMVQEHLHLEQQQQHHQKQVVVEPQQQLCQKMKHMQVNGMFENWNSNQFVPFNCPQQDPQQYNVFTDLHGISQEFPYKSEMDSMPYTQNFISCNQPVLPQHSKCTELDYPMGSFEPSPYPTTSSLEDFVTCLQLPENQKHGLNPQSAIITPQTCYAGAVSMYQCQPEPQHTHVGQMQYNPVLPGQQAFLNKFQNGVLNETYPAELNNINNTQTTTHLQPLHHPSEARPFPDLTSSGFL

Sulfotransferase 1C2 = Sulfotransferase 1C2 (Homo sapiens, UniProt O00338); experiment: Major substrate of human cytosolic sulfotransferase SULT1C2; format: ADME
Sulfotransferase 1C2, sequence (O00338 whole entry): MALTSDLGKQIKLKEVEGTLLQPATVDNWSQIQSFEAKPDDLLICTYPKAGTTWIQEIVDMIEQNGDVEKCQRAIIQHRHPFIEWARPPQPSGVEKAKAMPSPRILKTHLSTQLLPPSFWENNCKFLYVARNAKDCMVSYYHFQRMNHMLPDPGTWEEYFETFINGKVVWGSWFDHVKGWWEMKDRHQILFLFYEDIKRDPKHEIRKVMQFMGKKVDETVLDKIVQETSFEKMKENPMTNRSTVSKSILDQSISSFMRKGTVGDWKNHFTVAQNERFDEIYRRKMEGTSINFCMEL

Sulfotransferase 1C4 = Sulfotransferase 1C4 (Homo sapiens, UniProt O75897); experiment: Major substrate of human cytosolic sulfotransferase SULT1C4; format: ADME
Sulfotransferase 1C4, sequence (O75897 whole entry): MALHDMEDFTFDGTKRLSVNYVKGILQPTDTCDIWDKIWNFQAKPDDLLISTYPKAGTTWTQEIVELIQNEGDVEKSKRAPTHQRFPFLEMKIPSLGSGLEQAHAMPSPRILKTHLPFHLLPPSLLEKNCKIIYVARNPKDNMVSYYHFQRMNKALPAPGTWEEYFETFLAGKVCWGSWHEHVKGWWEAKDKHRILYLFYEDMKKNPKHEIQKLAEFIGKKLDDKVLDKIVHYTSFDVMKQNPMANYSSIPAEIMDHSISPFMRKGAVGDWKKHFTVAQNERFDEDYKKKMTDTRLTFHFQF

Sulfotransferase 1A2 = Sulfotransferase 1A2 (Homo sapiens, UniProt P50226); experiment: Major substrate of human cytosolic sulfotransferase SULT1A2; format: ADME
Sulfotransferase 1A2, sequence (P50226 whole entry): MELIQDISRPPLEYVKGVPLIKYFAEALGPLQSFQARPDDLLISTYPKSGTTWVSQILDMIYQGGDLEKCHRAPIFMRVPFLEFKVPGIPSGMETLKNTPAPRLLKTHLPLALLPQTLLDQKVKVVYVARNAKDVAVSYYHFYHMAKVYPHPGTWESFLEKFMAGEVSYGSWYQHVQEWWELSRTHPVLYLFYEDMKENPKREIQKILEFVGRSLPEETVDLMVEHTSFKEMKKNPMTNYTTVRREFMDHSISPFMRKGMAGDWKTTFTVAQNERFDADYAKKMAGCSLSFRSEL

[2] = target: T1, Aryl hydrocarbon receptor; experiment: Aryl hydrocarbon receptor agonist (species not specified)
Cytochrome P450 1A2 = target: T2, Cytochrome P450 1A2 (Homo sapiens, UniProt P05177); experiment: Clinically relevant inducers of human liver microsomal P450 enzymes, isoform CYP1A2; format: ADME; conditions: microsomes
T2 sequence (P05177 whole entry): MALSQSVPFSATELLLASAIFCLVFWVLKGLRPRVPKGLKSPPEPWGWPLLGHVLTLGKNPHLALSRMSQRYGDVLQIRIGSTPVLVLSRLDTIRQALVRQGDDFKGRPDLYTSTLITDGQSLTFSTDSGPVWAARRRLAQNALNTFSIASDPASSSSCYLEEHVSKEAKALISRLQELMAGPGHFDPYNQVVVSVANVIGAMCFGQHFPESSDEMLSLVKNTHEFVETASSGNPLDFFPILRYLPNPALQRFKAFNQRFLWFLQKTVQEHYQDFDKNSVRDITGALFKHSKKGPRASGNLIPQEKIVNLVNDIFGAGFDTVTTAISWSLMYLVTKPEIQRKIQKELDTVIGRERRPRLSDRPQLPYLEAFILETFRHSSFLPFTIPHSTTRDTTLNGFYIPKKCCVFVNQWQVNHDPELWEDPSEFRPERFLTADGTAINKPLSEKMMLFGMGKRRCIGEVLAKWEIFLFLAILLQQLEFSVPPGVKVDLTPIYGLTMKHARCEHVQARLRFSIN

Cytochrome P450 2E1 [3] = target: T3, Cytochrome P450 2E1 (Homo sapiens, UniProt P05181); experiment: Clinically relevant inducers of human liver microsomal P450 enzymes, isoform CYP2E1; format: ADME; conditions: microsomes
T3 sequence (P05181 whole entry, canonical isoform): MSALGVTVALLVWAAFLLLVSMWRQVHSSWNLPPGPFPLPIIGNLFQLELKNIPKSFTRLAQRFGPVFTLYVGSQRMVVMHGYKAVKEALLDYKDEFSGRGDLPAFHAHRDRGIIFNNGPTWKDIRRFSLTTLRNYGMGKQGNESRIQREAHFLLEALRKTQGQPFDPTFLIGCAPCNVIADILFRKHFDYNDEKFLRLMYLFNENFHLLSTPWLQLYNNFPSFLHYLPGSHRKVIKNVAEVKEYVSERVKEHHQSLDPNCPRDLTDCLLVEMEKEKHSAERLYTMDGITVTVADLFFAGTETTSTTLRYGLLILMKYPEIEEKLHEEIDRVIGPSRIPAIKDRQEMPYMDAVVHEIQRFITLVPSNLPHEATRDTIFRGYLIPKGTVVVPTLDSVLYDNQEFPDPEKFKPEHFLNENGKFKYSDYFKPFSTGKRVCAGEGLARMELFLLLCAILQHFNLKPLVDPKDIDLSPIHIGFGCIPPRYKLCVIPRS

Cytochrome P450 2A6 [4] = target: T4, Cytochrome P450 2A6 (Homo sapiens, UniProt P11509); experiment: Clinically relevant substrates of human liver microsomal P450 enzymes, isoform CYP2A6; format: ADME; conditions: microsomes
T4 sequence (P11509 whole entry): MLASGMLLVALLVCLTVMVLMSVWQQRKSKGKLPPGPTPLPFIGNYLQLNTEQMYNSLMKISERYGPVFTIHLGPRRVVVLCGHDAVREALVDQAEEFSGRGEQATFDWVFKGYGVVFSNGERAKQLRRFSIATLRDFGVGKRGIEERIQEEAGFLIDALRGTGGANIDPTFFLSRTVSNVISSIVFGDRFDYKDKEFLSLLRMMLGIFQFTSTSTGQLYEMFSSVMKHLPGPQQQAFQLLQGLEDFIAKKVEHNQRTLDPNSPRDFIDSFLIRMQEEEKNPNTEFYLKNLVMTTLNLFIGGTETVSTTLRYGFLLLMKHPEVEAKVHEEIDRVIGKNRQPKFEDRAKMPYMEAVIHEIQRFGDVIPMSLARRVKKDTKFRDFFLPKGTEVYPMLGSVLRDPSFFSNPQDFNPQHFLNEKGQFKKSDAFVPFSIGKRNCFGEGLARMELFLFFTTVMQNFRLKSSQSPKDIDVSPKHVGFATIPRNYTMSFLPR

Cytochrome P450 2A6 [5] = target: T4, Cytochrome P450 2A6; experiment: Clinically relevant inducers of human liver microsomal P450 enzymes, isoform CYP2A6; format: ADME; conditions: microsomes
Cytochrome P450 2C19 [6] = target: T5, Cytochrome P450 2C19 (Homo sapiens, UniProt P33261); experiment: Clinically relevant substrates of human liver microsomal P450 enzymes, isoform CYP2C19; format: ADME; conditions: microsomes
T5 sequence (P33261 whole entry, canonical isoform): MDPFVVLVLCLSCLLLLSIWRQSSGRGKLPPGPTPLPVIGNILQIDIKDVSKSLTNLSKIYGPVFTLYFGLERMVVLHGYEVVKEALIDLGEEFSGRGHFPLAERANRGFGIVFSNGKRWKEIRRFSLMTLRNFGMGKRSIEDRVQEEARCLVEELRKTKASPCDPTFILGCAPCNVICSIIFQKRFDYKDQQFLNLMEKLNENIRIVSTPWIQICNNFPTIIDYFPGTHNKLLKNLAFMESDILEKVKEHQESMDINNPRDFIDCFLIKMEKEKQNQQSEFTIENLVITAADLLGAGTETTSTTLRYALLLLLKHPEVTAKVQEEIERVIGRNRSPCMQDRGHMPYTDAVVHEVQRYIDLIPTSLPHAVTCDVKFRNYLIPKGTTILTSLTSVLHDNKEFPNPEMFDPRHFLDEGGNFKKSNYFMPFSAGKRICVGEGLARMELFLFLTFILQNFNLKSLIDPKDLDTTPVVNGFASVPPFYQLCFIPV

Cytochrome P450 2E1 [7] = target: T3, Cytochrome P450 2E1; experiment: Clinically relevant substrates of human liver microsomal P450 enzymes, isoform CYP2E1; format: ADME; conditions: microsomes
Sulfotransferase 1A3 = Sulfotransferase 1A3 (Homo sapiens, UniProt P0DMM9); experiment: Major substrate of human cytosolic sulfotransferase SULT1A3; format: ADME
Sulfotransferase 1A3, sequence (P0DMM9 whole entry): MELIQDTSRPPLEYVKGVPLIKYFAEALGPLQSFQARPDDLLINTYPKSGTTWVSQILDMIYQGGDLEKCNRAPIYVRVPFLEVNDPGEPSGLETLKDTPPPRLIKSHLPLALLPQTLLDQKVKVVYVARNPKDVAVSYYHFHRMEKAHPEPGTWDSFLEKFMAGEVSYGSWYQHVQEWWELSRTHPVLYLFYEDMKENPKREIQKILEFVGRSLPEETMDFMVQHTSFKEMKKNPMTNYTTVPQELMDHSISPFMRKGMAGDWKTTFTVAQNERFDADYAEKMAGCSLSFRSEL

Sulfotransferase 1B1 = Sulfotransferase 1B1 (Homo sapiens, UniProt O43704); experiment: Major substrate of human cytosolic sulfotransferase SULT1B1; format: ADME
Sulfotransferase 1B1, sequence (O43704 whole entry): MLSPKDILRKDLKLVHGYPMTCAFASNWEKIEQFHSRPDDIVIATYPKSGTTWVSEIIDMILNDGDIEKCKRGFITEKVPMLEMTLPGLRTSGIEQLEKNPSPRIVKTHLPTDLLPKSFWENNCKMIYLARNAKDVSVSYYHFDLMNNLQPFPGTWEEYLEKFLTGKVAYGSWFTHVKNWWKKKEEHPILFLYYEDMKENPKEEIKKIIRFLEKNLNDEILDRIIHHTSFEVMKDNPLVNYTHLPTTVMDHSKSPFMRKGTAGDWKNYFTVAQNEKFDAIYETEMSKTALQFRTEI

Sulfotransferase 4A1 = target: T6, Sulfotransferase 4A1 (Homo sapiens, UniProt Q9BR01); experiment: Major substrate of human cytosolic sulfotransferase SULT4A1_v1; format: ADME
T6 sequence (Q9BR01 whole entry): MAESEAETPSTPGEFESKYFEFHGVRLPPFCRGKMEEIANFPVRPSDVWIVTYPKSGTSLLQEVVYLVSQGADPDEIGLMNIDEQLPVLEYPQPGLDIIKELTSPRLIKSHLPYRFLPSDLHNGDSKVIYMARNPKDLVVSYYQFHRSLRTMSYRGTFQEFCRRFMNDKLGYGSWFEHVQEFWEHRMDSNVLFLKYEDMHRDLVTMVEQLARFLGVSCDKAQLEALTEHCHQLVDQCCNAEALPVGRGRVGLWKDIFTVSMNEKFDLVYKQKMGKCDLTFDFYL

Sulfotransferase 1A1 = Sulfotransferase 1A1 (Homo sapiens, UniProt P50225); experiment: Major substrate of human cytosolic sulfotransferase SULT1A1; format: ADME
Sulfotransferase 1A1, sequence (P50225 whole entry): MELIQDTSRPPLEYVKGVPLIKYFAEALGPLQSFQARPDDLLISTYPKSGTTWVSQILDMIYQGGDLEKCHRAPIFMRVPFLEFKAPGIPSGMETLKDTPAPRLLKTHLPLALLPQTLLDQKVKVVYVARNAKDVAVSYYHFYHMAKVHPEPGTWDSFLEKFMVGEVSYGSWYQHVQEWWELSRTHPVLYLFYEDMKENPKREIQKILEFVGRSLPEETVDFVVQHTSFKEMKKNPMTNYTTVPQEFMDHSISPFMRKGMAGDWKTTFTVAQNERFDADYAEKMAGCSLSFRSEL

[8] = target: T7, UDP-glucuronosyltransferase 1A6 (Homo sapiens, UniProt P19224); experiment: Substrate of human UDP-glucuronosyltransferase UGT1A6; format: ADME
T7 sequence (P19224 whole entry): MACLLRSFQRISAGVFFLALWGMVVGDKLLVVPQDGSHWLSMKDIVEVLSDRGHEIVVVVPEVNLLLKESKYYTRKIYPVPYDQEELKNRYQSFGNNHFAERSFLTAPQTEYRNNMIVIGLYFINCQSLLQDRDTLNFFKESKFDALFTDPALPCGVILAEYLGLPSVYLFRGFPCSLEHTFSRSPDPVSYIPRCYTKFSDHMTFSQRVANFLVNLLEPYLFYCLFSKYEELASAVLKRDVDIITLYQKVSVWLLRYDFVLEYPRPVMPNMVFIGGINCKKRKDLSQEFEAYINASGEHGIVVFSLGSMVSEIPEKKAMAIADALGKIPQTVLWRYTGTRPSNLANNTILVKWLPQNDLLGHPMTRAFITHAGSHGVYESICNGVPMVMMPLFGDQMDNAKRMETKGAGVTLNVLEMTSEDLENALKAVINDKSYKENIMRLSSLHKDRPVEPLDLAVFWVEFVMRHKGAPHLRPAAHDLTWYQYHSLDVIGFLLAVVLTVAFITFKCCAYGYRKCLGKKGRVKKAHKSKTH

Cytochrome P450 2B6 = target: T8, Cytochrome P450 2B6 (Homo sapiens, UniProt P20813); experiment: Clinically relevant inducers of human liver microsomal P450 enzymes, isoform CYP2B6; format: ADME; conditions: microsomes
T8 sequence (P20813 whole entry): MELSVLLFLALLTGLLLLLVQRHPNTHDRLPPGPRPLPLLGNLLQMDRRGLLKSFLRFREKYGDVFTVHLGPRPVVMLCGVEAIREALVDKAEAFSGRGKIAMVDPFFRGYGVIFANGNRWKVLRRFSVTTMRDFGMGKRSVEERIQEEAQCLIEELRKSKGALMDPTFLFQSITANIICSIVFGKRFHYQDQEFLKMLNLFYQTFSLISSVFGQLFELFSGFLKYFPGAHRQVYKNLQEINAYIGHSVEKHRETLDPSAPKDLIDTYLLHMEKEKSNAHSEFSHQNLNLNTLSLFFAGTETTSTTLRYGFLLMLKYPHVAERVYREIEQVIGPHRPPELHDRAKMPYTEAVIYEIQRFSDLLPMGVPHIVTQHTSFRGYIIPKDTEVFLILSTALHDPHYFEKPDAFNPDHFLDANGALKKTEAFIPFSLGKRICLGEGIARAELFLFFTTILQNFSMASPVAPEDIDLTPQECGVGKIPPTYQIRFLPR

Cytochrome P450 2C8 = target: T9, Cytochrome P450 2C8 (Homo sapiens, UniProt P10632); experiment: Clinically relevant inducers of human liver microsomal P450 enzymes, isoform CYP2C8; format: ADME; conditions: microsomes
T9 sequence (P10632 whole entry): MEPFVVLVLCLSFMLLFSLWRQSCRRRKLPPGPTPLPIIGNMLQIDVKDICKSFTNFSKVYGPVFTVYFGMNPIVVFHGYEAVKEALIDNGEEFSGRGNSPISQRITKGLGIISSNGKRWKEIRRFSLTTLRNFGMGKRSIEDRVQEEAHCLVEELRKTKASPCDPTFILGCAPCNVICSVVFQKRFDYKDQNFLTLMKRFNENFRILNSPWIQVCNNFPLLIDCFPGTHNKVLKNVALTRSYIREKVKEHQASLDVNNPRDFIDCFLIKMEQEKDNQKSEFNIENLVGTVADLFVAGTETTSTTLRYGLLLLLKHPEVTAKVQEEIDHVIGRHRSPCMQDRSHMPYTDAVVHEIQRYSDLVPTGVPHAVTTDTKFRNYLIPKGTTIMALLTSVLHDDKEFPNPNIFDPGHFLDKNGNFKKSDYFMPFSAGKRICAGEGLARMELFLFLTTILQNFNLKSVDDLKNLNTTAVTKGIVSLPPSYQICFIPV

Cytochrome P450 2C19 [9] = target: T5, Cytochrome P450 2C19; experiment: Clinically relevant inducers of human liver microsomal P450 enzymes, isoform CYP2C19; format: ADME; conditions: microsomes

Compound: Cc1ccccc1/N=N/c1ccc(NC(=O)c2ccnn2C)c(C)c1
- Activity [1]: antagonist

Compound: CC(=O)N(O)c1ccc2c(c1)Cc1ccccc1-2
- Activity (Sulfotransferase 1C2): Substrate
- Activity (Sulfotransferase 1C4): Substrate
- Activity (Sulfotransferase 1A2): Substrate

Compound: Clc1cc2c(cc1Cl)Oc1cc(Cl)c(Cl)cc1O2 [2,3,7,8-TETRACHLORODIBENZO-P-DIOXIN]
- Activity [2]: agonist
- Activity (Cytochrome P450 1A2): Inducer

Compound: CCO [ALCOHOL]
- Activity (Cytochrome P450 2E1 [3]): Inducer

Compound: O=c1ccc2ccccc2o1 [COUMARIN]
- Activity (Cytochrome P450 2A6 [4]): Substrate

Compound: C[C@@H]1C[C@H]2[C@@H]3CCC4=CC(=O)C=C[C@]4(C)[C@@]3(F)[C@@H](O)C[C@]2(C)[C@@]1(O)C(=O)CO [DEXAMETHASONE]
- Activity (Cytochrome P450 2A6 [5]): Inducer

Compound: CN1CCC[C@H]1c1cccnc1 [NICOTINE]
- Activity (Cytochrome P450 2A6 [4]): Substrate

Compound: O=[N+]([O-])c1ccc(O)cc1 [P-NITROPHENOL]
- Activity (Cytochrome P450 2E1 [7]): Substrate
- Activity (Sulfotransferase 1A3): Substrate
- Activity (Sulfotransferase 1B1): Substrate
- Activity (Sulfotransferase 1C2): Substrate
- Activity (Sulfotransferase 1C4): Substrate
- Activity (Sulfotransferase 4A1): Substrate
- Activity (Sulfotransferase 1A1): Substrate
- Activity (Sulfotransferase 1A2): Substrate
- Activity [8]: Substrate

Next, values leading:

- Activity (Cytochrome P450 2E1 [3]): Inducer
Compound: NNC(=O)c1ccncc1 [ISONIAZID]

- Activity [2]: agonist
- Activity (Cytochrome P450 2C19 [6]): Substrate
- Activity (Cytochrome P450 1A2): Inducer
Compound: COc1ccc2[nH]c([S+]([O-])Cc3ncc(C)c(OC)c3C)nc2c1 (stereo not drawn) [OMEPRAZOLE]

- Activity (Cytochrome P450 2A6 [5]): Inducer
Compound: c1cn[nH]c1 [PYRAZOLE]

- Activity (Cytochrome P450 2B6): Inducer
- Activity (Cytochrome P450 2C8): Inducer
- Activity (Cytochrome P450 2C19 [9]): Inducer
Compound: CO[C@H]1/C=C/O[C@@]2(C)Oc3c(C)c(O)c4c(O)c(c(/C=N/N5CCN(C)CC5)c(O)c4c3C2=O)NC(=O)/C(C)=C\C=C\[C@H](C)[C@H](O)[C@@H](C)[C@@H](O)[C@@H](C)[C@H](OC(C)=O)[C@@H]1C [RIFAMPIN]

- Activity [1]: antagonist
Compound: COc1ccc2[nH]c(SCc3ncc(C)c(OC)c3C)nc2c1 [UFIPRAZOLE]
